The numbers were not newly measured in paper PMC11581222, “Inhibition of CCl4-induced liver inflammation and fibrosis by a NEU3 inhibitor” (PLOS ONE, 2024), which cites them from elsewhere.

Data set [1] relates to high fat diet (HFD)-induced liver inflammation, weight gain and steatosis. The arrangement: method as in PMID 33039353. To be noted: injections, cited from earlier work.
Data set [2] concerns bleomycin-induced pulmonary fibrosis. To be noted: cited from earlier work.
For data set [3], the system named is MCD diet-induced liver fibrosis. The arrangement: method as in PMID 33378413. To be noted: cited from earlier work.
For the next data set, the system named is human recombinant NEU3. On the set-up: method as in PMID 33144389. To be noted: NEU3 species not specified for DANA; read-out: inhibition of active TGF-β1 release; cited from earlier work.

For `CC(=O)N[C@H]1[C@H]([C@H](O)[C@H](O)CO)OC(C(=O)O)=C[C@@H]1O` [DANA, N-acetyl-2,3-dehydro-2-deoxyneuraminic acid], the “HFD induced weight gain and steatosis” value in data set [1] is “inhibited HFD induced weight gain and steatosis”. The HFD-induced liver inflammation result in data set [1] (male mice) was “attenuate high fat diet (HFD)-induced liver inflammation”. For the same compound, in data set [2], the “desialylation in lung fibrosis” value is on record as “reversed desialylation in lung fibrosis”. Besides, in data set [2] (injections, male mice), the pulmonary fibrosis result is given as “attenuate bleomycin-induced pulmonary fibrosis”. Further, the “MCD diet-induced liver fibrosis” value in data set [3] was “inhibits methionine and choline-deficient (MCD) diet-induced liver fibrosis”. Besides, in the data set on human recombinant NEU3, the IC50 is over 100 µM.
